Experimental data published in US12570639B2, “Tetrahydroquinoline derivative and medicinal use thereof” (Toray Industries, Inc., priority 2020, dated 2026).
Where a name gives a salt, the structure may show the parent alone.

Assays:
[1] = tested on: Human fibrosarcoma cells (HT-1080 cells); test: In vitro inhibitory action against ferroptosis (Erastin-induced cell death, Cell Counting Kit-8); format: cell-based; conditions: Erastin 3 μmol/L, 24 hours
[2] = In vitro radical scavenging action (DPPH method); conditions: 30 minutes at room temperature, maximum concentration 100 μmol/L
Protocol: Radical scavenging action was evaluated using the DPPH method in the compound of Comparative Example 1, which is a tetrahydroquinoxaline derivative, and in the tetrahydroquinoline derivative (I) or a pharmaceutically acceptable salt thereof. The DPPH method was performed using an antioxidant capacity measurement kit (Dojindo Laboratories).
A test compound was dissolved in DMSO, and the resulting solution was then mixed with an assay buffer and a DPPH solution, which are included in the kit, to a total volume of 200 μL to obtain a final concentration of 10% DMSO, and the reaction was allowed to proceed. Wells added with 100 μmol/L ferrostatin-1, a radical scavenger, were grouped as “control,” and wells added with not test compound were grouped as “background.” The test compound was serially diluted 3-fold starting from a maximum concentration of 100 μmol/L, and the diluted test compound (1.2, 3.7, 11.1, 33.3, or 100 μmol/L) was added and allowed to react at room temperature. Thirty minutes after the reaction, the absorbance at 517 nm was measured, and the average absorbance value was calculated (N=2). The radical scavenging action of the test compound (hereinafter referred to as radical scavenging rate, %) was calculated based on the equation 2 below. The EC50 value of the test compound was calculated from the radical scavenging rate. Radical scavenging rate (%)=[1−{(Average absorbance value at 517 nm measured when a test compound is added)−(Average absorbance value at 517 nm measured in the background)}/{(Average absorbance value at 517 nm measured in the control)−(Average absorbance value at 517 nm measured in the background)}]×100 Equation 2
A note “no detection of radical scavenging action (N.D.),” is given to compounds with a EC50 of >100 μmol/L.

[3] = tested on: MOG-induced experimental autoimmune encephalomyelitis mouse model; test: Activity assessment 1 in MOG-induced experimental autoimmune encephalomyelitis mouse model; format: in vivo, C57BL/6J mice; conditions: 30 mg/kg orally twice daily for 15 days starting 55 days after MOG35-55 inoculation
Protocol: The effect of the compound of Example 1 on increase of neurological score was assessed in the MOG-induced experimental autoimmune encephalomyelitis mouse model. The MOG-induced experimental autoimmune encephalomyelitis mouse model was produced according to the method of Jianfeng et al. (The Journal of Immunology, 2009, vol. 182, p. 4036-4045) with partial modification. A PBS solution prepared to contain a synthetic partial peptide of MOG (MOG35-55; CSBio) at a concentration of 4 mg/mL was mixed with an equal volume of Freund's complete adjuvant, and a total of 0.1 mL (0.05 mL per flank) of the resulting MOG35-55 dosing solution was inoculated intradermally into the bilateral flanks of C57BL/6J mice (male, 10 weeks old, Charles River Laboratories Japan, Inc.). On the day of inoculation of the MOG35-55 dosing solution and on the second day after the inoculation, 200 μL of pertussis toxin (Sigma Co. LLC) prepared at a concentration of 1 μg/mL was further administered intraperitoneally to the mice. A test compound was administered orally at a dose of 30 mg/kg twice daily for a period of 15 days starting 55 days after the inoculation of the MOG35-55 dosing solution. The test compound was suspended in a 0.5% methylcellulose solution (hereinafter referred to as vehicle), and the resulting suspension was used. […]

[4] = tested on: MOG-induced experimental autoimmune encephalomyelitis mouse model; test: Activity assessment 2 in MOG-induced experimental autoimmune encephalomyelitis mouse model; format: in vivo, C57BL/6J mice; conditions: 30 mg/kg orally twice daily for 15 days starting 50 days after MOG35-55 inoculation; vs vehicle-dosing group (1.93)
Protocol: (§1) A PBS solution prepared to contain a synthetic partial peptide of MOG (MOG35-55; CSBio) at a concentration of 4 mg/mL was mixed with an equal volume of Freund's complete adjuvant, and a total of 0.1 mL (0.05 mL per flank) of the resulting MOG35-55 dosing solution was inoculated intradermally into the bilateral flanks of C57BL/6J mice (male, 10 weeks old, Charles River Laboratories Japan, Inc.). On the day of inoculation of the MOG35-55 dosing solution and on the second day after the inoculation, 200 μL of pertussis toxin (Sigma Co. LLC) prepared at a concentration of 1 μg/mL was further administered intraperitoneally to the mice.
(§2) The compound of Example 11, the compound of Example 32, and the compound of Example 36 were used as test compounds to assess the effect of the test compounds on increase of neurological score in the MOG-induced experimental autoimmune encephalomyelitis mouse model. The study was performed in the same manner as in Example 175, except that the start day for administrating a test compound, the scoring method, and the timing of determining the neurological score were changed from those in Example 175. Each test compound was administered orally at a dose of 30 mg/kg twice daily for a period of 15 days starting 50 days after the inoculation of the MOG35-55 dosing solution. In addition, the score was determined by the following criteria: 0, normal; 0.5, partial drooping tail; 1, full drooping tail or hind-limb weakness; 2, full drooping tail and hind-limb weakness; 3, hind-limb partial paralysis; 4, hind-limb complete paralysis; 5, fore- and hind-limb complete paralysis.
The vertical axis represents neurological score (mean±standard error, n=7 or 8). On the horizontal axis, “Vehicle” represents the vehicle-dosing group, and “Compound of Example 11” represents the compound of Example 11—dosing group, and “Compound of Example 32” represents the compound of Example 32—dosing group, and “Compound of Example 36” represents the compound of Example 36—dosing group.

[5] = tested on: MOG-induced experimental autoimmune encephalomyelitis mouse model; test: Activity assessment 4 in MOG-induced experimental autoimmune encephalomyelitis mouse model; format: in vivo, C57BL/6J mice; conditions: 10 mg/kg orally twice daily for 16 days starting 52 days after MOG35-55 inoculation; vs vehicle-dosing group (2.25)
Protocol: as §1
The compound of Example 11, the compound of Example 32, and the compound of Example 36 were used as test compounds to assess the effect of the test compounds on increase of neurological score in the MOG-induced experimental autoimmune encephalomyelitis mouse model. […] In addition, the score was determined by the following criteria: 0, normal; 0.5, partial drooping tail; 1, full drooping tail or hind-limb weakness; 2, full drooping tail and hind-limb weakness; 3, hind-limb partial paralysis; 4, hind-limb complete paralysis; 5, fore- and hind-limb complete paralysis. […]

[6] = tested on: MOG-induced experimental autoimmune encephalomyelitis mouse model; test: Activity assessment 3 in MOG-induced experimental autoimmune encephalomyelitis mouse model; format: in vivo, C57BL/6J mice; conditions: 10 mg/kg orally twice daily for 10 days starting 53 days after MOG35-55 inoculation; vs vehicle-dosing group (2.25)
Protocol: as §1, §2
The compound of Example 144, the compound of Example 171, and the compound of Example 172 were used as test compounds to assess the effect of the test compounds on increase of neurological score in the MOG-induced experimental autoimmune encephalomyelitis mouse model. […]

[7] = evaluation concentration 30 μmol/L
[8] = evaluation concentration 10 μmol/L

EC50 [2] | Structure (SMILES) | Ferroptosis inhibition rate (%) [1, 7] | also measured
> 100 µM | NS(=O)(=O)c1ccc(C2CCc3ccccc3N2)cc1 (stereo not drawn) [Example 32, 4-(1,2,3,4-tetrahydroquinolin-2-yl)benzenesulfonamide] | 100.5% | neurological score reduction rate [4]: 55.4%
> 100 µM | NC(=O)c1ccc(C2CCc3ccccc3N2)cc1 (stereo not drawn) [Example 36, 4-(1,2,3,4-tetrahydroquinolin-2-yl)benzamide] | 98.76% | neurological score reduction rate [4]: 45.1%
> 100 µM | O=C(Cc1ccc2c(c1)CCC(c1ccccc1)N2)N1CC(O)C1 (stereo not drawn) [Example 144, 1-(3-hydroxyazetidin-1-yl)-2-(2-phenyl-1,2,3,4-tetrahydroquinolin-6-yl)ethan-1-one hydrochloride] |  | Ferroptosis inhibition rate (%) ([1]; evaluation concentration 30 μmol/L, hydrochloride): 96.14%; neurological score reduction rate [6]: 25.0%
> 100 µM | O=C1CN(C(=O)Cc2ccc3c(c2)CCC(c2ccccc2)N3)CCN1 (stereo not drawn) [Example 157] | 69.89% | 
> 100 µM | O=C(Cc1ccc2c(c1)CCC(c1ccccc1)N2)N1CC(F)(F)C1 (stereo not drawn) [Example 160, 1-(3,3-difluoroazetidin-1-yl)-2-(2-phenyl-1,2,3,4-tetrahydroquinolin-6-yl)ethan-1-one] |  | Ferroptosis inhibition rate (%) [1, 8]: 99.11%
> 100 µM | O=C(Cc1ccc2c(c1)CCC(c1ccccc1)N2)N1CC(F)(F)C1 (stereo not drawn) [Example 161, 1-(3,3-difluoroazetidin-1-yl)-2-(2-phenyl-1,2,3,4-tetrahydroquinolin-6-yl)ethan-1-one] |  | Ferroptosis inhibition rate (%) [1, 8]: 94.01%

Continued, molecule first:

Structure (SMILES) | EC50 [2] | Ferroptosis inhibition rate (%) [1, 7] | also measured
Cl.c1ccc(C2CCc3ccccc3N2)cc1 (stereo not drawn) [Example 1, 2-phenyl-1,2,3,4-tetrahydroquinoline hydrochloride] | > 100 µM | 110.5% | neurological score ([3]; next day after last administration, mean, n=7): 1.29; neurological score reduction rate ([3]; vs vehicle-dosing group (2.43)): 46.9%
c1ccc2c(c1)CCC(c1cn[nH]c1)N2 (stereo not drawn) [Example 11, 2-(1H-pyrazol-4-yl)-1,2,3,4-tetrahydroquinoline] |  |  | Ferroptosis inhibition rate (%) ([1]; evaluation concentration 50 μmol/L): 106.0%; neurological score reduction rate [4]: 54.4%
NC(=O)c1ccc(C2CCc3ccccc3N2)cc1 (stereo not drawn) [Example 38, 4-(1,2,3,4-tetrahydroquinolin-2-yl)benzamide] | > 100 µM | 104.0% | neurological score reduction rate [5]: 27.8%
Cc1ccc2c(c1)CCC(c1ccc(S(N)(=O)=O)cc1)N2 (stereo not drawn) [Example 119, 4-(6-methyl-1,2,3,4-tetrahydro-quinolin-2-yl)benzenesulfonamide] | > 100 µM |  | Ferroptosis inhibition rate (%) [1, 8]: 89.67%; neurological score reduction rate [5]: 33.3%
O=C(Cc1ccc2c(c1)CCC(c1ccccc1)N2)N1CCNCC1 (stereo not drawn) [Example 158, 2-(2-phenyl-1,2,3,4-tetrahydroquinolin-6-yl)-1-(piperazin-1-yl)ethan-1-one] | > 100 µM | 55.98% | 
NS(=O)(=O)c1ccc(C2CNc3ccccc3C2)cc1 (stereo not drawn) [Example 171, 4-(1,2,3,4-tetrahydroquinolin-3-yl)benzenesulfonamide] |  | 90.71% | neurological score reduction rate [6]: 47.2%
NS(=O)(=O)c1ccc(C2CNc3ccccc3C2)cc1 (stereo not drawn) [Example 172, 4-(1,2,3,4-tetrahydroquinolin-3-yl)benzenesulfonamide] |  | 92.87% | neurological score reduction rate [6]: 27.8%
